Test system: patients with ALK-positive NSCLC
Assay: Phase 1 safety assessment (TRAEs by CTCAE 4.03, DLT, MTD, RP2D)
Assay type: in vivo, human
Experimental: In the dose-escalation phase, the dose was escalated sequentially from a low to a high level with a 3 + 3 dose-escalation scheme based on the modified Fibonacci method. The starting dose for conteltinib was 50 mg orally quaque die (QD). Dose escalation proceeded to the next six cohorts of 100 mg, 200 mg, 300 mg, 450 mg, 600 mg, and 800 mg QD. For each dose, there was a PK lead-in phase where a single dose was given 7 days before cycle 1 day 1. Then, each dose was taken continuously in a 28-day cycle. The first cycle was for dose-limiting toxicity (DLT) investigation. When one of three patients experienced a DLT in a dose cohort, three additional patients were enrolled in the same dose cohort to assess the dose level in a total of six patients. All patients received conteltinib until disease progression, unacceptable toxicity, or withdrawal of consent. Patients received follow-up safety assessments for 30 days (±7 days) after the last conteltinib dose.
In the dose-expansion phase, each dose was taken continuously in a 28-day cycle. At the end of each cycle, a safety evaluation was conducted. If patients met the criteria to enter the next cycle, treatment with conteltinib was continued for subsequent cycles. All patients received conteltinib until disease progression, unacceptable toxicity, or withdrawal of consent. Patients received follow-up safety assessments for 30 days (±7 days) after the last dose of conteltinib.
The safety of conteltinib was assessed in safety set (SS) which was based on the National Cancer Institute Common Terminology Criteria for Adverse Events (CTCAE) version 4.03, laboratory tests, vital signs, ECG, and clinical observations. […] Adverse events (AEs) were judged to be treatment-related or not by investigators.
DLTs were AEs occurring in the first cycle of treatment (28 days) that were attributed to conteltinib, and the criteria were grade 4 neutropenia lasting ≥ 7 days, febrile neutropenia, grade 3 thrombocytopenia, grade 3 non-hematologic toxicity, and any conteltinib-related toxicity resulting in treatment delay > 2 weeks or discontinuation of conteltinib treatment at the assigned dose level. Besides, grade 3 nausea, vomiting, or diarrhea for ≥ 3 days or grade 4 nausea, vomiting, or diarrhea of any duration was considered as a DLT. The MTD was defined as the dose of conteltinib that would be closest to but not higher than a 33% probability of a DLT.

In the case of `COc1cc(N2CCC(N3CCN(C)CC3)CC2)ccc1Nc1nc2c(c(Nc3ccccc3S(=O)(=O)NC(C)C)n1)CCN2` [Conteltinib], the “Patients with any TRAE” value (50 mg QD (n=2), Grade 1–2) is reported as 1 (50.0) n (%), the “TRAE ALT elevated” value (50 mg QD (n=2), Grade 1–2) is reported as 0 (0.0) n (%) and the “TRAE AST elevated” value (50 mg QD (n=2), Grade 1–2) is reported as 0 (0.0) n (%). For the same compound, the “TRAE Abdominal pain” value (50 mg QD (n=2), Grade 1–2) was 0 (0.0) n (%), the “TRAE Abdominal pain upper” value (50 mg QD (n=2), Grade 1–2) was 0 (0.0) n (%) and the “TRAE Appetite decreased” value (50 mg QD (n=2), Grade 1–2) was 0 (0.0) n (%). For the same compound, the “TRAE Conjugated bilirubin elevated” value (50 mg QD (n=2), Grade 1–2) was 0 (0.0) n (%), the “TRAE Diarrhea” value (50 mg QD (n=2), Grade 1–2) was 1 (50.0) n (%) and the “TRAE Hypercholesterolemia” value (50 mg QD (n=2), Grade 1–2) was 0 (0.0) n (%). For the same compound, the “TRAE Hyperglycemia” value (50 mg QD (n=2), Grade 1–2) was 0 (0.0) n (%), the “TRAE Hypertriglyceridemia” value (50 mg QD (n=2), Grade 1–2) was 0 (0.0) n (%) and the “TRAE Hyperuricemia” value (50 mg QD (n=2), Grade 1–2) was 0 (0.0) n (%). For the same compound, the “TRAE Hypoalbuminemia” value (50 mg QD (n=2), Grade 1–2) was 0 (0.0) n (%), the “TRAE Nausea” value (50 mg QD (n=2), Grade 1–2) was 0 (0.0) n (%) and the “TRAE Proteinuria” value (50 mg QD (n=2), Grade 1–2) was 0 (0.0) n (%). The “TRAE Serum creatinine elevated” value (50 mg QD (n=2), Grade 1–2) was 0 (0.0) n (%), the “TRAE Vomiting” value (50 mg QD (n=2), Grade 1–2) was 0 (0.0) n (%) and the “TRAE Weight loss” value (50 mg QD (n=2), Grade 1–2) was 0 (0.0) n (%). The “TRAE γ-GGT elevated” value (50 mg QD (n=2), Grade 1–2) was 0 (0.0) n (%), the “Patients with any TRAE” value (50 mg QD (n=2), Grade ≥ 3) was 0 (0.0) n (%) and the “TRAE ALT elevated” value (50 mg QD (n=2), Grade ≥ 3) was 0 (0.0) n (%). For the same compound, the “TRAE AST elevated” value (50 mg QD (n=2), Grade ≥ 3) was 0 (0.0) n (%), the “TRAE Abdominal pain” value (50 mg QD (n=2), Grade ≥ 3) was 0 (0.0) n (%) and the “TRAE Abdominal pain upper” value (50 mg QD (n=2), Grade ≥ 3) was 0 (0.0) n (%). The “TRAE Appetite decreased” value (50 mg QD (n=2), Grade ≥ 3) was 0 (0.0) n (%), the “TRAE Conjugated bilirubin elevated” value (50 mg QD (n=2), Grade ≥ 3) was 0 (0.0) n (%) and the “TRAE Diarrhea” value (50 mg QD (n=2), Grade ≥ 3) was 0 (0.0) n (%). For the same compound, the “TRAE Hypercholesterolemia” value (50 mg QD (n=2), Grade ≥ 3) was 0 (0.0) n (%), the “TRAE Hyperglycemia” value (50 mg QD (n=2), Grade ≥ 3) was 0 (0.0) n (%) and the “TRAE Hypertriglyceridemia” value (50 mg QD (n=2), Grade ≥ 3) was 0 (0.0) n (%). For the same compound, the “TRAE Hyperuricemia” value (50 mg QD (n=2), Grade ≥ 3) was 0 (0.0) n (%), the “TRAE Hypoalbuminemia” value (50 mg QD (n=2), Grade ≥ 3) was 0 (0.0) n (%) and the “TRAE Nausea” value (50 mg QD (n=2), Grade ≥ 3) was 0 (0.0) n (%). The “TRAE Proteinuria” value (50 mg QD (n=2), Grade ≥ 3) was 0 (0.0) n (%), the “TRAE Serum creatinine elevated” value (50 mg QD (n=2), Grade ≥ 3) was 0 (0.0) n (%) and the “TRAE Vomiting” value (50 mg QD (n=2), Grade ≥ 3) was 0 (0.0) n (%). The “TRAE Weight loss” value (50 mg QD (n=2), Grade ≥ 3) was 0 (0.0) n (%), the “TRAE γ-GGT elevated” value (50 mg QD (n=2), Grade ≥ 3) was 0 (0.0) n (%) and the “Patients with any TRAE” value (100 mg QD (n=8), Grade 1–2) was 6 (75.0) n (%). The “TRAE ALT elevated” value (100 mg QD (n=8), Grade 1–2) was 1 (12.5) n (%), the “TRAE AST elevated” value (100 mg QD (n=8), Grade 1–2) was 2 (25.0) n (%) and the “TRAE Abdominal pain” value (100 mg QD (n=8), Grade 1–2) was 0 (0.0) n (%). For the same compound, the “TRAE Abdominal pain upper” value (100 mg QD (n=8), Grade 1–2) was 1 (12.5) n (%), the “TRAE Appetite decreased” value (100 mg QD (n=8), Grade 1–2) was 0 (0.0) n (%) and the “TRAE Conjugated bilirubin elevated” value (100 mg QD (n=8), Grade 1–2) was 1 (12.5) n (%). The “TRAE Diarrhea” value (100 mg QD (n=8), Grade 1–2) was 0 (0.0) n (%), the “TRAE Hypercholesterolemia” value (100 mg QD (n=8), Grade 1–2) was 1 (12.5) n (%) and the “TRAE Hyperglycemia” value (100 mg QD (n=8), Grade 1–2) was 1 (12.5) n (%). For the same compound, the “TRAE Hypertriglyceridemia” value (100 mg QD (n=8), Grade 1–2) was 1 (12.5) n (%), the “TRAE Hyperuricemia” value (100 mg QD (n=8), Grade 1–2) was 1 (12.5) n (%) and the “TRAE Hypoalbuminemia” value (100 mg QD (n=8), Grade 1–2) was 0 (0.0) n (%). For the same compound, the “TRAE Nausea” value (100 mg QD (n=8), Grade 1–2) was 3 (37.5) n (%), the “TRAE Proteinuria” value (100 mg QD (n=8), Grade 1–2) was 0 (0.0) n (%) and the “TRAE Serum creatinine elevated” value (100 mg QD (n=8), Grade 1–2) was 2 (25.0) n (%). The “TRAE Vomiting” value (100 mg QD (n=8), Grade 1–2) was 1 (12.5) n (%), the “TRAE Weight loss” value (100 mg QD (n=8), Grade 1–2) was 0 (0.0) n (%) and the “TRAE γ-GGT elevated” value (100 mg QD (n=8), Grade 1–2) was 0 (0.0) n (%). The “Patients with any TRAE” value (100 mg QD (n=8), Grade ≥ 3) was 0 (0.0) n (%), the “TRAE ALT elevated” value (100 mg QD (n=8), Grade ≥ 3) was 0 (0.0) n (%) and the “TRAE AST elevated” value (100 mg QD (n=8), Grade ≥ 3) was 0 (0.0) n (%). For the same compound, the “TRAE Abdominal pain” value (100 mg QD (n=8), Grade ≥ 3) was 0 (0.0) n (%), the “TRAE Abdominal pain upper” value (100 mg QD (n=8), Grade ≥ 3) was 0 (0.0) n (%) and the “TRAE Appetite decreased” value (100 mg QD (n=8), Grade ≥ 3) was 0 (0.0) n (%). For the same compound, the “TRAE Conjugated bilirubin elevated” value (100 mg QD (n=8), Grade ≥ 3) was 0 (0.0) n (%), the “TRAE Diarrhea” value (100 mg QD (n=8), Grade ≥ 3) was 0 (0.0) n (%) and the “TRAE Hypercholesterolemia” value (100 mg QD (n=8), Grade ≥ 3) was 0 (0.0) n (%). The “TRAE Hyperglycemia” value (100 mg QD (n=8), Grade ≥ 3) was 0 (0.0) n (%), the “TRAE Hypertriglyceridemia” value (100 mg QD (n=8), Grade ≥ 3) was 0 (0.0) n (%) and the “TRAE Hyperuricemia” value (100 mg QD (n=8), Grade ≥ 3) was 0 (0.0) n (%). For the same compound, the “TRAE Hypoalbuminemia” value (100 mg QD (n=8), Grade ≥ 3) was 0 (0.0) n (%), the “TRAE Nausea” value (100 mg QD (n=8), Grade ≥ 3) was 0 (0.0) n (%) and the “TRAE Proteinuria” value (100 mg QD (n=8), Grade ≥ 3) was 0 (0.0) n (%). For the same compound, the “TRAE Serum creatinine elevated” value (100 mg QD (n=8), Grade ≥ 3) was 0 (0.0) n (%), the “TRAE Vomiting” value (100 mg QD (n=8), Grade ≥ 3) was 0 (0.0) n (%) and the “TRAE Weight loss” value (100 mg QD (n=8), Grade ≥ 3) was 0 (0.0) n (%). For the same compound, the “TRAE γ-GGT elevated” value (100 mg QD (n=8), Grade ≥ 3) was 0 (0.0) n (%), the “Patients with any TRAE” value (200 mg QD (n=3), Grade 1–2) was 3 (100) n (%) and the “TRAE ALT elevated” value (200 mg QD (n=3), Grade 1–2) was 0 (0.0) n (%). For the same compound, the “TRAE AST elevated” value (200 mg QD (n=3), Grade 1–2) was 1 (33.3) n (%), the “TRAE Abdominal pain” value (200 mg QD (n=3), Grade 1–2) was 0 (0.0) n (%) and the “TRAE Abdominal pain upper” value (200 mg QD (n=3), Grade 1–2) was 0 (0.0) n (%). The “TRAE Appetite decreased” value (200 mg QD (n=3), Grade 1–2) was 0 (0.0) n (%), the “TRAE Conjugated bilirubin elevated” value (200 mg QD (n=3), Grade 1–2) was 0 (0.0) n (%) and the “TRAE Diarrhea” value (200 mg QD (n=3), Grade 1–2) was 0 (0.0) n (%). For the same compound, the “TRAE Hypercholesterolemia” value (200 mg QD (n=3), Grade 1–2) was 0 (0.0) n (%), the “TRAE Hyperglycemia” value (200 mg QD (n=3), Grade 1–2) was 0 (0.0) n (%) and the “TRAE Hypertriglyceridemia” value (200 mg QD (n=3), Grade 1–2) was 0 (0.0) n (%). For the same compound, the “TRAE Hyperuricemia” value (200 mg QD (n=3), Grade 1–2) was 1 (33.3) n (%), the “TRAE Hypoalbuminemia” value (200 mg QD (n=3), Grade 1–2) was 0 (0.0) n (%) and the “TRAE Nausea” value (200 mg QD (n=3), Grade 1–2) was 0 (0.0) n (%). The “TRAE Proteinuria” value (200 mg QD (n=3), Grade 1–2) was 0 (0.0) n (%), the “TRAE Serum creatinine elevated” value (200 mg QD (n=3), Grade 1–2) was 0 (0.0) n (%) and the “TRAE Vomiting” value (200 mg QD (n=3), Grade 1–2) was 0 (0.0) n (%). For the same compound, the “TRAE Weight loss” value (200 mg QD (n=3), Grade 1–2) was 0 (0.0) n (%), the “TRAE γ-GGT elevated” value (200 mg QD (n=3), Grade 1–2) was 0 (0.0) n (%) and the “Patients with any TRAE” value (200 mg QD (n=3), Grade ≥ 3) was 0 (0.0) n (%). For the same compound, the “TRAE ALT elevated” value (200 mg QD (n=3), Grade ≥ 3) was 0 (0.0) n (%) and the “TRAE AST elevated” value (200 mg QD (n=3), Grade ≥ 3) was 0 (0.0) n (%).

— paper PMC9694544, “Conteltinib (CT-707) in patients with advanced ALK-positive non-small cell lung cancer: a multicenter, open-label, first-in-human phase 1 study” (BMC Medicine, 2022)
